The source of these data is patent publication US20230069804A1, “METHODS AND COMPOSITIONS FOR MODULATING SPLICING” (SkyHawk Therapeutics, Inc., priority 2019, published 2023).

The term Papp A→B denotes the apparent permeability from the apical to the basolateral side of a cell layer. The term Papp B→A denotes how fast a substance crosses the layer from the basolateral side.

Series [1] deals with MDR1-MDCK cell monolayers. The experiment in a line: MDCK-MDR1 permeability assay (BBB penetration potential). The conditions noted are these: 5 μM, 120 minutes; for MDCK MDRP1 Efflux Ratio: Papp (B-to-A)/Papp (A-to-B), separated enantiomers, told apart by chiral retention time; for MDCK-MDR1: % Recov A-B / MDCK-MDR1: % Recov B-A: pH 7.4. It counts as in vitro ADME. As to the method:
(§1) Each determination is performed in duplicate. […] Analytical conditions are outlined below.
(§2) Papp=(dCr/dt)×Vr/(A×CA) (1)

The subject of a further series is MDR1. Described as above. It counts as in vitro ADME. The conditions noted are these: dog; for Papp A→B at 120 min, 5 μM / Papp B→A at 120 min, 5 μM: MDCK-MDR1, pH 7.4. As to the method: as §1, §2
Setting [2] is: MDCK-MDR1, pH 7.4, Papp (B-to-A)/Papp (A-to-B), 5 μM, 120 minutes, separated enantiomers, told apart by chiral retention time, read-out: MDCK MDRP1 Efflux Ratio.
Setting [3] is: MDCK-MDR1, pH 7.4, Papp (B-to-A)/Papp (A-to-B), read-out: MDCK-MDR1: Efflux.

Values joined by “and” are separate entries in the source; they are usually repeats but may differ in a detail not shown here. Identical values can stand only once. Like-named read-outs stand apart in the source and are kept apart here.

For the compound `CN(c1nnc(-c2ccc(-c3cnn(C)c3)cc2O)s1)[C@@H]1C[C@H]2CCC[C@H](N2)[C@@H]1F` (racemic) [1A/1B, 2-(5-(((1S,2S,3R,5R)-2-fluoro-9-azabicyclo[3.3.1]nonan-3-yl)(methyl)amino)-1,3,4-thiadiazol-2-yl)-5-(1-methyl-1H-pyrazol-4-yl)phenol and 2-(5-(((1R,2R,3S,5S)-2-fluoro-9-azabicyclo[3.3.1]nonan-3-yl)(methyl)amino)-1,3,4-thiadiazol-2-yl)-5-(1-methyl-1H-pyrazol-4-yl)phenol], the “MDCK MDRP1 Efflux Ratio” value in series [1] came to 6. The efflux ratio at 120 min, 5 μM in the series with MDR1 (setting [2]) is 5.5.
On to `COc1cc(-c2ccc(-c3nnc(N(C4CC4)[C@@H]4C[C@H]5CC[C@H](N5)[C@@H]4F)s3)c(O)c2)cc(F)n1` (racemic) [2A/2B, 2-(5-(cyclopropyl((1S,2S,3R,5R)-2-fluoro-8-azabicyclo[3.2.1]octan-3-yl)amino)-1,3,4-thiadiazol-2-yl)-5-(2-fluoro-6-methoxypyridin-4-yl)phenol and 2-(5-(cyclopropyl((1R,2R,3S,5S)-2-fluoro-8-azabicyclo[3.2.1]octan-3-yl)amino)-1,3,4-thiadiazol-2-yl)-5-(2-fluoro-6-methoxypyridin-4-yl)phenol], for which the efflux ratio at 120 min, 5 μM in the series on MDR1 (setting [2]) is 5.
For `CN(c1nnc(-c2ccc(-c3cnn(C)c3)cc2O)s1)[C@H]1C[C@@H]2CC[C@@H](N2)[C@H]1F` (racemic) [3A/3B, 2-(5-(((1R,2R,3S,5S)-2-fluoro-8-azabicyclo[3.2.1]octan-3-yl)(methyl)amino)-1,3,4-thiadiazol-2-yl)-5-(1-methyl-1H-pyrazol-4-yl)phenol], the “MDCK MDRP1 Efflux Ratio” value in series [1] was 5.3. For the same compound, the efflux ratio at 120 min, 5 μM in the series with MDR1 (setting [2]) turned out to be 4.3.
Take `COc1cc(-c2ccc(-c3nnc(N(C)[C@@H]4C[C@H]5CC[C@H](N5)[C@@H]4F)s3)c(O)c2)ncn1` (racemic) [5A/5B, 2-(5-{[(1S,2S,3R)-2-fluoro-8-azabicyclo[3.2.1]octan-3-yl](methyl)amino}-1,3,4-thiadiazol-2-yl)-5-(6-methoxypyrimidin-4-yl)phenol and 2-(5-{[(2R,3S,5S)-2-fluoro-8-azabicyclo[3.2.1]octan-3-yl](methyl)amino}-1,3,4-thiadiazol-2-yl)-5-(6-methoxypyrimidin-4-yl)phenol]: the efflux ratio at 120 min, 5 μM in the series on MDR1 (setting [2]) worked out at 2.
As for `CN(c1nnc(-c2ccc(-c3cn[nH]c3)cc2O)s1)[C@H]1C[C@@H]2CC[C@@H](N2)[C@H]1F` (racemic) [7A/7B, 2-(5-{[(1S,2S,3R,5R)-2-fluoro-8-azabicyclo[3.2.1]octan-3-yl](methyl)amino}-1,3,4-thiadiazol-2-yl)-5-(1H-pyrazol-4-yl)phenol and 2-(5-{[(1R,2R,3S,5S)-2-fluoro-8-azabicyclo[3.2.1]octan-3-yl](methyl)amino}-1,3,4-thiadiazol-2-yl)-5-(1H-pyrazol-4-yl)phenol], the efflux ratio at 120 min, 5 μM in the series on MDR1 (setting [2]) turned out to be 12.
Turning to `CN(c1nnc(-c2ccc(-c3cc(=O)n(C)cn3)cc2O)s1)[C@@H]1C[C@H]2CC[C@H](N2)[C@@H]1F` (racemic) [8A/8B, 6-[4-(5-{[(1S,2S,3R)-2-fluoro-8-azabicyclo[3.2.1]octan-3-yl](methyl)amino}-1,3,4-thiadiazol-2-yl)-3-hydroxyphenyl]-3-methyl-3,4-dihydropyrimidin-4-one and 6-[4-(5-{[(2R,3S,5S)-2-fluoro-8-azabicyclo[3.2.1]octan-3-yl](methyl)amino}-1,3,4-thiadiazol-2-yl)-3-hydroxyphenyl]-3-methyl-3,4-dihydropyrimidin-4-one], the “MDCK MDRP1 Efflux Ratio” value in series [1] is 31. Further, the efflux ratio at 120 min, 5 μM in the series on MDR1 (setting [2]) was 21.
In the same order, the values of `CN(c1nnc(-c2cc(F)c(-c3cnn(C)c3)cc2O)s1)[C@H]1C[C@@H]2CC[C@@H](N2)[C@H]1F` (racemic) [9A/9B, 4-fluoro-2-(5-{[(1S,2S,3R,5R)-2-fluoro-8-azabicyclo[3.2.1]octan-3-yl](methyl)amino}-1,3,4-thiadiazol-2-yl)-5-(1-methyl-1H-pyrazol-4-yl)phenol and 4-fluoro-2-(5-{[(1R,2R,3S,5S)-2-fluoro-8-azabicyclo[3.2.1]octan-3-yl](methyl)amino}-1,3,4-thiadiazol-2-yl)-5-(1-methyl-1H-pyrazol-4-yl)phenol] are 6 and 5.
In the case of `COc1cc(-c2ccc(-c3nnc(N(C)[C@@H]4C[C@H]5CC[C@H](N5)[C@@H]4F)s3)c(O)c2)ccn1` (racemic) [11A/11B, 2-(5-{[(1S,2S,3R)-2-fluoro-8-azabicyclo[3.2.1]octan-3-yl](methyl)amino}-1,3,4-thiadiazol-2-yl)-5-(2-methoxypyridin-4-yl)phenol and 2-(5-{[(2R,3S,5S)-2-fluoro-8-azabicyclo[3.2.1]octan-3-yl](methyl)amino}-1,3,4-thiadiazol-2-yl)-5-(2-methoxypyridin-4-yl)phenol], in the series on MDR1 (setting [2]), the efflux ratio at 120 min, 5 μM stood at 2.
With `CN(c1nnc(-c2ccc(-c3ccn(CF)c(=O)c3)cc2O)s1)[C@@H]1C[C@H]2CC[C@H](N2)[C@@H]1F` (racemic) [15A/15B, 4-[4-(5-{[(1S,2S,3R)-2-fluoro-8-azabicyclo[3.2.1]octan-3-yl](methyl)amino}-1,3,4-thiadiazol-2-yl)-3-hydroxyphenyl]-1-(fluoromethyl)-1,2-dihydropyridin-2-one and 4-[4-(5-{[(2R,3S,5S)-2-fluoro-8-azabicyclo[3.2.1]octan-3-yl](methyl)amino}-1,3,4-thiadiazol-2-yl)-3-hydroxyphenyl]-1-(fluoromethyl)-1,2-dihydropyridin-2-one], in series [1], the “MDCK MDRP1 Efflux Ratio” value was 66. The efflux ratio at 120 min, 5 μM with MDR1 (setting [2]) worked out at 40.
As for `CN(c1nnc(-c2ccc(-c3cnn(C)c3)cc2O)s1)[C@H]1C[C@@H]2CC[C@H]([C@H]1F)N2C` (racemic) [21A/21B, 2-(5-{[(1S,2S,3R,5R)-2-fluoro-8-methyl-8-azabicyclo[3.2.1]octan-3-yl](methyl)amino}-1,3,4-thiadiazol-2-yl)-5-(1-methyl-1H-pyrazol-4-yl)phenol and 2-(5-{[(1R,2R,3S,5S)-2-fluoro-8-methyl-8-azabicyclo[3.2.1]octan-3-yl](methyl)amino}-1,3,4-thiadiazol-2-yl)-5-(1-methyl-1H-pyrazol-4-yl)phenol], in series [1], the “MDCK MDRP1 Efflux Ratio” value is given as 4. The efflux ratio at 120 min, 5 μM in the series with MDR1 (setting [2]) came to 3.
`CN(c1nnc(-c2ccc(-c3cn[nH]c3)cc2O)s1)[C@H]1C[C@@H]2CC[C@H]([C@H]1F)N2C` (racemic) [23A/23B, 2-(5-{[(1S,2S,3R,5R)-2-fluoro-8-methyl-8-azabicyclo[3.2.1]octan-3-yl](methyl)amino}-1,3,4-thiadiazol-2-yl)-5-(1H-pyrazol-4-yl)phenol and 2-(5-{[(1R,2R,3S,5S)-2-fluoro-8-methyl-8-azabicyclo[3.2.1]octan-3-yl](methyl)amino}-1,3,4-thiadiazol-2-yl)-5-(1H-pyrazol-4-yl)phenol]: the “MDCK MDRP1 Efflux Ratio” value in series [1] was found to be 9. Further, in the series with MDR1 (setting [2]), the efflux ratio at 120 min, 5 μM is 7.
In the case of `CN(c1nnc(-c2cc(F)c(-c3cn[nH]c3)cc2O)s1)[C@H]1C[C@@H]2CC[C@H]([C@H]1F)N2C` (racemic) [24A/24B, 4-fluoro-2-(5-{[(1S,2S,3R,5R)-2-fluoro-8-methyl-8-azabicyclo[3.2.1]octan-3-yl](methyl)amino}-1,3,4-thiadiazol-2-yl)-5-(1H-pyrazol-4-yl)phenol and 4-fluoro-2-(5-{[(1R,2R,3S,5S)-2-fluoro-8-methyl-8-azabicyclo[3.2.1]octan-3-yl](methyl)amino}-1,3,4-thiadiazol-2-yl)-5-(1H-pyrazol-4-yl)phenol], the “MDCK MDRP1 Efflux Ratio” value in series [1] was 7. The efflux ratio at 120 min, 5 μM in the series with MDR1 (setting [2]) amounted to 6.
With `CN(c1nnc(-c2ccc(-c3cnn(C)c3)cc2O)s1)[C@H]1C[C@@H]2CC[C@H]([C@H]1F)N2C` (racemic) [25A/25B, 2-(5-{[(1S,2S,3R,5R)-2-fluoro-8-methyl-8-azabicyclo[3.2.1]octan-3-yl](methyl)amino}-1,3,4-thiadiazol-2-yl)-5-(1-methyl-1H-pyrazol-4-yl)phenol and 2-(5-{[(1R,2R,3S,5S)-2-fluoro-8-methyl-8-azabicyclo[3.2.1]octan-3-yl](methyl)amino}-1,3,4-thiadiazol-2-yl)-5-(1-methyl-1H-pyrazol-4-yl)phenol], the “MDCK MDRP1 Efflux Ratio” value in series [1] was 3 and 4.
Regarding `CN(c1nnc(-c2ccc(-c3ccn(C)c(=O)c3)cc2O)s1)[C@@H]1C[C@H]2CC[C@H](N2)[C@@H]1F` (single isomer, unassigned) [Compound E-4A], in series [1], the “MDCK-MDR1: % Recov A-B” value amounted to 93% and the “MDCK-MDR1: % Recov B-A” value was 101%. Also, the efflux ratio at 120 min, 5 μM in the series with MDR1 (setting [3]) stood at 54. Besides, in the series on MDR1 (5 μM, 120 minutes), the Papp A→B at 120 min, 5 μM is 1.03 ×10⁻⁶ cm/s and the Papp B→A at 120 min, 5 μM is 55.9 ×10⁻⁶ cm/s.
Consider `CN(c1nnc(-c2ccc(-c3ccn(C)c(=O)c3)cc2O)s1)[C@H]1C[C@@H]2CC[C@@H](N2)[C@H]1F` (single isomer, unassigned) [Compound E-4B], for which, in series [1], the “MDCK-MDR1: % Recov A-B” value came to 115% and the “MDCK-MDR1: % Recov B-A” value came out at 125%. Also, the efflux ratio at 120 min, 5 μM in the series with MDR1 (setting [3]) is 40. Further, in the series on MDR1 (5 μM, 120 minutes), the Papp A→B at 120 min, 5 μM stood at 1.81 ×10⁻⁶ cm/s and the Papp B→A at 120 min, 5 μM is 71.4 ×10⁻⁶ cm/s.
For `COc1cc(-c2ccc(-c3nnc(N(C)[C@H]4C[C@@H]5CC[C@@H](N5)[C@H]4F)s3)c(O)c2)ncn1` (single isomer, unassigned) [Compound E-5B], in series [1], the “MDCK-MDR1: % Recov A-B” value amounted to 37% and the “MDCK-MDR1: % Recov B-A” value was 58%. Further, the efflux ratio at 120 min, 5 μM with MDR1 (setting [3]) came to 2. Besides, in the series on MDR1 (5 μM, 120 minutes), the Papp A→B at 120 min, 5 μM was found to be 6.59 ×10⁻⁶ cm/s and the Papp B→A at 120 min, 5 μM was found to be 9.86 ×10⁻⁶ cm/s.
`CN(c1nnc(-c2cc(F)c(-c3cn[nH]c3)cc2O)s1)[C@@H]1C[C@H]2CC[C@H](N2)[C@@H]1F` (single isomer, unassigned) [Compound E-6A]: in series [1], the “MDCK-MDR1: % Recov A-B” value is reported as 59% and the “MDCK-MDR1: % Recov B-A” value is reported as 80%. Also, the efflux ratio at 120 min, 5 μM in the series on MDR1 (setting [3]) amounted to 15. In the series with MDR1 (5 μM, 120 minutes), this compound came in with a Papp A→B at 120 min, 5 μM of 2.33 ×10⁻⁶ cm/s and a Papp B→A at 120 min, 5 μM of 35.2 ×10⁻⁶ cm/s.
